Laboratory results from patent US11932658B2 (BRISTOL-MYERS SQUIBB COMPANY, priority 2016, dated 2024).

tested on: washed platelets; assay: not given; details: not given
Protocol: Human blood was collected in ACD (85 mM tri-sodium citrate, 78 mM citric acid, 110 mM D-glucose, pH 4.4) at a ratio of 1.4 ml per 10 ml blood. PRP was isolated by centrifugation at 170 g for 14 minutes and platelets were further pelleted by centrifugation at 1300 g for 6 minutes. Platelets were washed once with 10 ml ACD containing 1 mg/ml bovine serum albumin. Platelets were resuspended at ˜2.5×10^8/ml in Tyrode's Buffer (137 mM NaCl, 2 mM KCl, 1.0 mM MgCl2, 1 mM CaCl2), 5 mM glucose, 20 mM HEPES pH 7.4).

Row | EC50 [nM] | Molecule
1 | 12000 | C[C@H](N)C(=O)N[C@@H](Cc1ccc(O)cc1)C(=O)N1CCC[C@H]1C(=O)NCC(=O)N[C@@H](CCCCN)C(=O)N[C@@H](Cc1ccccc1)C(=O)O [AYPGKF]

target: T1, PAR4 (Homo sapiens, UniProt Q96RI0); assay: PAR4 FLIPR assay (antagonism of agonist peptide-induced calcium mobilization); format: cell-based; details: not given
T1 construct: expressed in transfected cells; host or cells: HEK293 PAR4 Clone 1.2A (BMS Arctic ID 383940)
T1 sequence (Q96RI0 18-385): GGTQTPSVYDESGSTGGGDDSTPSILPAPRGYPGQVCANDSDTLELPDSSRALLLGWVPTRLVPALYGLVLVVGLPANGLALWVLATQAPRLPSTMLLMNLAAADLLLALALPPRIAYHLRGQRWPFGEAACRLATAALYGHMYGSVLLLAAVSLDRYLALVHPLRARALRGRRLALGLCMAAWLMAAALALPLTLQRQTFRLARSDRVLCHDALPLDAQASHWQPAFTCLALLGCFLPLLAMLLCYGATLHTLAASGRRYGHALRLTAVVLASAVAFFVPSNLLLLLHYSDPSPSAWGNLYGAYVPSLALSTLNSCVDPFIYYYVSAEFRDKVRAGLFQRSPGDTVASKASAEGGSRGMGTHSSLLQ
In short: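 Antagonism was taken as block of calcium mobilization evoked by the agonist peptide H-Ala-Phe(4-F)-Pro-Gly-Trp-Leu-Val-Lys-Asn-[…]-NH2, added after 30 min room-temperature compound preincubation in dye-loaded PAR4-transfected HEK293 cells (endogenous PAR1). Fluorescence was read on FDSS, with compound addition alone used as the agonist counter-screen; values come from 11-point concentration-response curves.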

Row | IC50 [nM] | Molecule
2 | 4.9 | CCOc1cnc2c(-c3nc4ccc5c(c4s3)OC[C@H](COC(=O)Nc3cnc(C)nc3)O5)cc(Cl)cc2c1 [Example 271, (R)-(2-(6-chloro-3-ethoxyquinolin-8-yl)-7,8-dihydro-[1,4]dioxino[2′,3′:3,4]benzo[1,2-d]thiazol-7-yl)methyl (2-methylpyrimidin-5-yl)carbamate]
3 | 3.3 | Cc1ncc(NC(=O)OC[C@H]2COc3c(ccc4nc(-c5cc(Cl)cc6cc(OC(F)F)cnc56)sc34)O2)cn1 [Example 272, (R)-(2-(6-chloro-3-(difluoromethoxy)quinolin-8-yl)-7,8-dihydro-[1,4]dioxino[2′,3′:3,4]benzo[1,2-d]thiazol-7-yl)methyl (2-methylpyrimidin-5-yl)carbamate]
4 | 6.4 | Cc1ncc(NC(=O)OC[C@H]2Cc3c(c(F)cc4nc(-c5cc(Cl)cc6cc(OC(F)F)cnc56)sc34)O2)cn1 [Example 273, (R)-(2-(6-chloro-3-(difluoromethoxy)quinolin-8-yl)-5-fluoro-7,8-dihydrobenzofuro[5,4-d]thiazol-7-yl)methyl (2-methylpyrimidin-5-yl)carbamate]
5 | 12 | COc1cnc2c(-c3nc4ccc5c(c4s3)OC[C@H](COC(=O)Nc3cnc(C)nc3)O5)cc(C(F)F)cc2c1 [Example 275, (R)-(2-(6-(difluoromethyl)-3-methoxyquinolin-8-yl)-7,8-dihydro-[1,4]dioxino [2′,3′:3,4]benzo[1,2-d]thiazol-7-yl)methyl (2-methylpyrimidin-5-yl)carbamate]
6 | 140 | COc1cnc2c(-c3nc4ccc5c(c4s3)OC[C@H](COC(=O)Nc3cnc(C)nc3)O5)cc(CF)cc2c1 [Example 276, (R)-(2-(6-(fluoromethyl)-3-methoxyquinolin-8-yl)-7,8-dihydro-[1,4]dioxino[2′,3′:3,4]benzo[1,2-d]thiazol-7-yl)methyl (2-methylpyrimidin-5-yl)carbamate]
7 | 19 | COc1cnc2c(-c3nc4c(C(O)C5(C)CCCCC5)cc5c(c4s3)OCCO5)cc(C)cc2n1 (stereo not drawn) [Example 278, (2-(2-methoxy-7-methylquinoxalin-5-yl)-7,8-dihydro-[1,4]dioxino[2′,3′:3,4]benzo[1,2-d]thiazol-4-yl)(1-methylcyclohexyl)methanol]
8 | 9.1 | COc1cnc2c(-c3nc4c(C(O)C5(C(F)(F)F)CC5)cc5c(c4s3)OCCO5)cc(C)cc2n1 (stereo not drawn) [Example 279, (2-(2-methoxy-7-methylquinoxalin-5-yl)-7,8-dihydro-[1,4]dioxino[2′,3′:3,4]benzo[1,2-d]thiazol-4-yl)(1-(trifluoromethyl)cyclopropyl)methanol]
9 | 2.4 | COc1cnc2c(-c3nc4cc(F)c5c(c4s3)C[C@H](COC(=O)Nc3cnc(C)nc3)O5)cc(F)cc2c1 [Example 280, (R)-(5-fluoro-2-(6-fluoro-3-methoxyquinolin-8-yl)-7,8-dihydrobenzofuro[5,4-d]thiazol-7-yl)methyl (2-methylpyrimidin-5-yl)carbamate]
10 | 9 | COc1cnc2c(-c3nc4ccc5c(c4s3)OC[C@H](COC(=O)Nc3cnc(C)nc3)O5)cc(F)cc2c1 [Example 281, (R)-(2-(6-fluoro-3-methoxyquinolin-8-yl)-7,8-dihydro-[1,4]dioxino[2′,3′:3,4]benzo[1,2-d]thiazol-7-yl)methyl (2-methylpyrimidin-5-yl)carbamate]
11 | 36 | COc1cnc2c(-c3nc4cc(F)c5c(c4s3)C[C@H](CO)O5)cc(Cl)cc2c1 [Example 282, (R)-(2-(6-chloro-3-methoxyquinolin-8-yl)-5-fluoro-7,8-dihydrobenzofuro[5,4-d]thiazol-7-yl)methanol]
12 | 2.2 | COc1cnc2c(-c3nc4cc(F)c5c(c4s3)C[C@H](COC(=O)Nc3cccnc3)O5)cc(Cl)cc2c1 [Example 283, (R)-(2-(6-chloro-3-methoxyquinolin-8-yl)-5-fluoro-7,8-dihydrobenzofuro[5,4-d]thiazol-7-yl)methyl pyridin-3-ylcarbamate]
13 | 2.8 | COc1cnc2c(-c3nc4cc(F)c5c(c4s3)C[C@H](COC(=O)Nc3cccc(C(N)=O)c3)O5)cc(Cl)cc2c1 [Example 284, (R)-(2-(6-chloro-3-methoxyquinolin-8-yl)-5-fluoro-7,8-dihydrobenzofuro[5,4-d]thiazol-7-yl)methyl (3-carbamoylphenyl)carbamate]
14 | 1.5 | COc1cnc2c(-c3nc4cc(F)c5c(c4s3)C[C@@](C)(CO)O5)cc(Cl)cc2c1 [Example 285, (S)-(2-(6-chloro-3-methoxyquinolin-8-yl)-5-fluoro-7-methyl-7,8-dihydrobenzofuro[5,4-d]thiazol-7-yl)methanol]
15 | 1 | COc1cnc2c(-c3nc4cc(F)c5c(c4s3)C[C@](C)(COC(=O)Nc3cnc(OCCO)nc3)O5)cc(Cl)cc2c1 [Example 286, (R)-(2-(6-chloro-3-methoxyquinolin-8-yl)-5-fluoro-7-methyl-7,8-dihydrobenzofuro[5,4-d]thiazol-7-yl)methyl (2-(2-hydroxyethoxy)pyrimidin-5-yl)carbamate]
16 | 1.6 | COc1cnc2c(-c3nc4ccc5c(c4s3)OC[C@H](COC(=O)Nc3cnc(OCCO)nc3)O5)cc(Cl)cc2c1 [Example 287, (R)-(2-(6-chloro-3-methoxyquinolin-8-yl)-7,8-dihydro-[1,4]dioxino[2′,3′:3,4]benzo[1,2-d]thiazol-7-yl)methyl (2-(2-hydroxyethoxy)pyrimidin-5-yl)carbamate]
17 | 2.2 | COc1cnc2c(-c3nc4ccc5c(c4s3)OC[C@H](COC(=O)Nc3cnc(OC[C@H](C)O)nc3)O5)cc(Cl)cc2c1 [Example 288, ((R)-2-(6-chloro-3-methoxyquinolin-8-yl)-7,8-dihydro-[1,4]dioxino[2′,3′:3,4]benzo[1,2-d]thiazol-7-yl)methyl (2-((S)-2-hydroxypropoxy)pyrimidin-5-yl)carbamate]
18 | 1.8 | COc1cnc2c(-c3nc4ccc5c(c4s3)OC[C@H](COC(=O)Nc3cnc(OC[C@@H](C)O)nc3)O5)cc(Cl)cc2c1 [Example 289, ((R)-2-(6-chloro-3-methoxyquinolin-8-yl)-7,8-dihydro-[1,4]dioxino[2′,3′:3,4]benzo[1,2-d]thiazol-7-yl)methyl (2-((R)-2-hydroxypropoxy)pyrimidin-5-yl)carbamate]
19 | 0.8 | COc1cnc2c(-c3nc4cc(F)c5c(c4s3)[C@H](C)[C@@H](CO)O5)cc(Cl)cc2c1 [Example 290, ((7S,8S)-2-(6-chloro-3-methoxyquinolin-8-yl)-5-fluoro-8-methyl-7,8-dihydrobenzofuro[5,4-d]thiazol-7-yl)methanol]
20 | 59 | COc1cnc2c(-c3nc4cc(F)c5c(c4s3)OC[C@H](CO)O5)cc(C)cc2n1 [Example 291, (S)-(5-fluoro-2-(2-methoxy-7-methylquinoxalin-5-yl)-7,8-dihydro-[1,4]dioxino[2′,3′:3,4]benzo[1,2-d]thiazol-7-yl)methanol]

same assay, conditions: PAR4-expressing HEK293 cells; calcium mobilization induced by H-Ala-Phe(4-F)-Pro-Gly-Trp-Leu-Val-Lys-Asn-Gly-NH2; 11-point concentration-response curves

Row | Molecule | IC50 [nM]
21 | (S)-5-fluoro-2-(2-methoxy-7-methylquinoxalin-5-yl)-7-(((2-methylpyrimidin-5-yl)oxy)m ethyl)-7,8-dihydro-[1,4]dioxino[2′,3′:3,4]benzo[1,2-d]thiazole [Example 292] | 1.1

target: T2, protease-activated receptor type 4 (PAR4) (Homo sapiens, UniProt Q96RI0); assay: not given; details: abstract of J. Med. Chem. 44(22):3746-3749 (2001); cited from earlier work
T2 sequence (Q96RI0 18-385): T1 sequence (Q96RI0 18-385)

Row | Molecule | Inhibition of PAR4-dependent platelet activation
22 | CCOC(=O)c1ccc(-c2nn(Cc3ccccc3)c3ccccc23)cc1 [YD-3, ethyl 4-(1-benzyl-1H-indazol-3-yl)benzoate] | selective and potent inhibitor

target: T3, PAR1 (Homo sapiens, UniProt P25116); assay: not given; details: ACS patients, TRACER phase III trial; cited from earlier work
T3 construct: in the TRACER phase III trial in ACS patients; host or cells: ACS patients (clinical trial)
T3 sequence (P25116 22-425): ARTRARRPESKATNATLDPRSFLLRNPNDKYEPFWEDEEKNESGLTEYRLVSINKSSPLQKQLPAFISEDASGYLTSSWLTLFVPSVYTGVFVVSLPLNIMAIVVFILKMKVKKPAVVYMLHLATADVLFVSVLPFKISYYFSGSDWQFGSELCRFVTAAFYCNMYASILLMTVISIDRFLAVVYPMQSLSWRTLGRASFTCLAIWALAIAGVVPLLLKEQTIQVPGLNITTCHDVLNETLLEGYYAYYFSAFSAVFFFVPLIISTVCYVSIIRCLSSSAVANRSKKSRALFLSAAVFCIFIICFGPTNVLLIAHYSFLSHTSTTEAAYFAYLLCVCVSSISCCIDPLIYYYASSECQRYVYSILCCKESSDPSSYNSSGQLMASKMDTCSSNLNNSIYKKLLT

Row | Molecule | Cardiovascular events | Risk of major bleeding
23 | CCOC(=O)N[C@@H]1CC[C@@H]2[C@@H](C1)C[C@H]1C(=O)O[C@H](C)[C@H]1[C@H]2/C=C/c1ccc(-c2cccc(F)c2)cn1 [vorapaxar] | did not significantly reduce | significantly increased
